Our source for the melting point values is patent US7157580B2, “Aminopyrimidine and aminopyridine anti-inflammation agents” (Roche Palo Alto LLC, priority 2001, dated 2007).

For orientation: melting point means the temperature, or range, at which the solid turns liquid.

`Cn1cncc1-c1cc(/C=N/N(CCC(C)(C)O)C(N)=S)nc(NC2CCN(S(C)(=O)=O)CC2)n1` [Compound 96, 2-(1-methanesulfonyl-piperidin-4-ylamino)-6-(1-methyl-1H-imidazol-5-yl)-pyrimidine-4-carbaldehyde 2-(2-hydroxy-2-methyl-but-4-yl)-thiosemicarbazone]: the melting point was in the range of 203.6 to 206 °C.
